In patent US12286435B2, “Compound having benzo seven-membered ring structure, preparation method therefor, and use thereof” (BIONNA (BEIJING) MEDICAL TECHNOLOGY CO., LTD., priority 2019, dated 2025):
pIC50, pKi: −log10 of the molar value.

Assays:
[1] = test system: multiple myeloma MM.1S cell line; test: Cell viability (CCK-8), multiple myeloma MM.1S; format: cell-based; conditions: MM.1S cells, 4 days, CCK-8, 50% inhibition of cell growth
Description: 3. Determination of cell viability of the compound
The sample to be tested was dissolved with 100% dimethyl sulfoxide to prepare a 20 mM stock solution of the compound, which was diluted with 100% dimethyl sulfoxide to the highest compound concentration required for the experiment (2.5 mM).
First, 145 uL of a complete cell culture medium was added to wells B1-G1 of a 96-well flat-bottomed tansparent cell culture plate, and 100 uL of the complete medium was added to wells B2-G12, respectively. Then, 5 uL of the 2.5 mM solution of the compound was added to wells B1-D1 and E1-G1 respectively, and then diluted gradiently by 3-folds to B12-D12 and E12-G12 in sequence. Finally, 50 uL of the solution of the cells to be tested was added to each well, with about 3000-5000 cells per well, and a total volume of 150 uL per well.
In the experiment, in addition to the tested compound, two other control groups were set up: 1) a control group adding the cells and the complete medium, but without adding the compound; 2) a control group adding the complete medium only, without adding the cells and the compound. The 96-well plate was placed in a 37° C. cell culture incubator containing 5% carbon dioxide for 4 days, added with 15 uL of a CCK-8 reagent per well, and then incubated at 37° C. for 2-4 hours. The 96-well plate was read on a TECAN microplate reader, and the absorbance value at 450 nm wavelength was taken.
The effect of different concentrations of the compound on cell viability was calculated by the following equation: [absorption value of the experimental group−absorption value of pure cell culture medium without the cells or the compound]/[absorption value of the control group with the tumor cells but no testing compound−absorption value of pure cell culture medium without the cell or the compound]×100%.
The above data were precessed by software, and the IC50 value was the concentration of the compound corresponding to the 50% inhibition rate of cell growth.
Based on the above test method of the compound on cell viability, a variety of […] cancer cell lines were tested, using multiple myeloma MM.1S, breast cancer MDA-MB-231 and leukemia MV4-11 cell lines as exemples. Using this test method, the IC50 values of partial compounds in the examples of the present invention measured in multiple myeloma MM.1S, breast cancer MDA-MB-231 cell lines and leukemia MV4-11 cell lines were shown in Table 2.

BRD4 BD2 protein = BRD4 BD2 protein (Homo sapiens (Human), UniProt O60885); test: Fluorescence polarization binding affinity (Ki) with BRD4 BD2 protein; parameters: BRD4 BD2 Ki: reference not given here; conditions: fluorescence polarization; Ki calculated from IC50
BRD4 BD1 protein = BRD4 BD1 protein (Homo sapiens (Human), UniProt O60885); test: Fluorescence polarization binding affinity (Ki) with BRD4 BD1 protein; conditions: fluorescence polarization; Ki calculated from IC50

In the case of `Cc1nnn2c1-c1ccc(-c3cnn(C)c3)cc1C(Nc1cccc(C(=O)O)c1)CC2` (stereo not drawn) [LB97, 3-((1-methyl-9-(1-methyl-1H-pyrazol-4-yl)-6,7-dihydro-5H-benzo[c][1,2,3]triazolo[1,5-a]azepin-7-yl)amino)benzoic acid], the pIC50 ([1]; Homo sapiens, MM1.S, 96 h) was 5.09, the pKi (BRD4 BD2 protein) was 7.55 and the pKi (BRD4 BD1 protein) was 6.45.

Work on `Cc1nnn2c1-c1ccc(-c3cnn(C)c3)cc1C(Nc1ccccc1OCCO)CC2` (stereo not drawn) [LB90, 2-(2-((1-methyl-9-(1-methyl-1H-pyrazol-4-yl)-6,7-dihydro-5H-benzo[c][1,2,3]triazolo[1,5-a]azepin-7-yl)amino)phenoxy)ethanol] yielded a pIC50 ([1]; Homo sapiens, MM1.S, 96 h) of 7.28, a pKi (BRD4 BD2 protein) of 7.78 and a pKi (BRD4 BD1 protein) of 6.87.

`Cc1nnn2c1-c1ccc(C3=CCN(C)CC3)cc1C(Nc1cccc(Cl)c1)CC2` (stereo not drawn) [LD07, N-(3-chlorophenyl)-1-methyl-9-(1-methyl-1,2,3,6-tetrahydropyridin-4-yl)-6,7-dihydro-5H-benzo[c][1,2,3]triazolo[1,5-a]azepin-7-amine 2,2,2-trifluoroacetate] was tested, and the pIC50 ([1]; Homo sapiens, MM1.S, 96 h) was 6.84, the pKi (BRD4 BD2 protein) was 7.48 and the pKi (BRD4 BD1 protein) was 6.11.

With `COc1ccc2c(c1)C(Nc1ccc(C(F)(F)F)cc1)CCc1onc(C)c1-2` (stereo not drawn) [FA05, 8-methoxy-1-methyl-N-(4-(trifluoromethyl)phenyl)-5,6-dihydro-4H-benzo[6,7]cyclohepta[1,2-d]isoxazol-6-amine] the pIC50 ([1]; Homo sapiens, MM1.S, 96 h) was 7.60, the pKi (BRD4 BD2 protein) was 6.86 and the pKi (BRD4 BD1 protein) was 6.69.

With `Cc1nnn2c1-c1ccc(-c3cnn(C)c3)cc1C(Nc1ccccc1CN(C)C)CC2` (stereo not drawn) [LC29, N-(2-((dimethylamino)methyl)phenyl)-1-methyl-9-(1-methyl-1H-pyrazol-4-yl)-6,7-dihydro-5H-benzo[c][1,2,3]triazolo[1,5-a]azepin-7-amine] the pIC50 ([1]; Homo sapiens, MM1.S, 96 h) was 7.91, the pKi (BRD4 BD2 protein) was 8.12 and the pKi (BRD4 BD1 protein) was 7.71.

In the case of `Cc1nnn2c1-c1ccc(-c3cnn(C)c3)cc1C(Nc1cccc(N(C)C)c1)CC2` (stereo not drawn) [LB152, N^1,N^1-dimethyl-N^3-(1-methyl-9-(1-methyl-1H-pyrazol-4-yl)-6,7-dihydro-5H-benzo[c][1,2,3]triazolo[1,5-a]azepin-7-yl)benzene-1,3-diamine], the pIC50 ([1]; Homo sapiens, MM1.S, 96 h) was 7.58, the pKi (BRD4 BD2 protein) was 7.78 and the pKi (BRD4 BD1 protein) was 7.12.

`Cc1nnn2c1-c1ccc(-c3cnn(C)c3)cc1C(Nc1ccc3[nH]ccc3c1)CC2` (stereo not drawn) [LB98, N-(1H-indo1-5-yl)-1-methyl-9-(1-methyl-1H-pyrazol-4-yl)-6,7-dihydro-5H-benzo[c][1,2,3]triazolo[1,5-a]azepin-7-amine] gave a pIC50 ([1]; Homo sapiens, MM1.S, 96 h) of 7.67, a pKi (BRD4 BD2 protein) of 8.04 and a pKi (BRD4 BD1 protein) of 7.28.

For `Cc1nnn2c1-c1ccc(-c3cnn(C)c3)cc1C(Nc1ccc(C#N)cc1)CC2` (stereo not drawn) [LC18, 4-((1-methyl-9-(1-methyl-1H-pyrazol-4-yl)-6,7-dihydro-5H-benzo[c][1,2,3]triazolo[1,5-a]azepin-7-yl)amino)benzonitrile], the pIC50 ([1]; Homo sapiens, MM1.S, 96 h) was 8.33, the pKi (BRD4 BD2 protein) was 7.82 and the pKi (BRD4 BD1 protein) was 7.46.

`Cc1nnn2c1-c1ccc(-c3cnn(C)c3)cc1C(Nc1ccc(CCN(C)C)cc1)CC2` (stereo not drawn) [LB139, N-(4-(2-(dimethylamino)ethyl)phenyl)-1-methyl-9-(1-methyl-1H-pyrazol-4-yl)-6,7-dihydro-5H-benzo[c][1,2,3]triazolo[1,5-a]azepin-7-amine] gave a pIC50 ([1]; Homo sapiens, MM1.S, 96 h) of 6.92, a pKi (BRD4 BD2 protein) of 7.32 and a pKi (BRD4 BD1 protein) of 6.91.

In the case of `Cc1nnn2c1-c1ccc(-c3cnn(C)c3)cc1C(Nc1ccc3ncccc3c1)CC2` (stereo not drawn) [LB88, 1-methyl-9-(1-methyl-1H-pyrazol-4-yl)-N-(quinolin-6-yl)-6,7-dihydro-5H-benzo[c][1,2,3]triazolo[1,5-a]azepin-7-amine], the pIC50 ([1]; Homo sapiens, MM1.S, 96 h) was 7.61, the pKi (BRD4 BD2 protein) was 7.82 and the pKi (BRD4 BD1 protein) was 6.86.

In the case of `CCc1nnn2c1-c1ccc(-c3cnn(C)c3)cc1C(Nc1ccc(Cl)cc1)CC2` (stereo not drawn) [BE02, N-(4-chlorophenyl)-1-ethyl-9-(1-methyl-1H-pyrazol-4-yl)-6,7-dihydro-5H-benzo[c][1,2,3]triazolo[1,5-a]azepin-7-amine], the pIC50 ([1]; Homo sapiens, MM1.S, 96 h) was 6.86, the pKi (BRD4 BD2 protein) was 7.37 and the pKi (BRD4 BD1 protein) was 6.89.

In the case of `CC(=O)N1CC=C(c2ccc3c(c2)C(Nc2cccc(Cl)c2)CCn2nnc(C)c2-3)CC1` (stereo not drawn) [BH29, 1-(4-(7-((3-chlorophenyl)amino)-1-methyl-6,7-dihydro-5H-benzo[c][1,2,3]triazolo[1,5-a]azepin-9-yl)-3,6-dihydropyridin-1(2H)-yl)ethan-1-one], the pIC50 ([1]; Homo sapiens, MM1.S, 96 h) was 9.00, the pKi (BRD4 BD2 protein) was 8.90 and the pKi (BRD4 BD1 protein) was 7.40.

With `Cc1nnn2c1-c1ccc(-c3cnn(C)c3)cc1C(Nc1ccc(CO)cc1)CC2` (stereo not drawn) [LB35, (4-((1-methyl-9-(1-methyl-1H-pyrazol-4-yl)-6,7-dihydro-5H-benzo[c][1,2,3]triazolo[1,5-a]azepin-7-yl)amino)phenyl)methanol] the pIC50 ([1]; Homo sapiens, MM1.S, 96 h) was 7.44, the pKi (BRD4 BD2 protein) was 7.62 and the pKi (BRD4 BD1 protein) was 6.21.

`Cc1nnn2c1-c1ccc(-c3cnn(C)c3)cc1C(Nc1ccccc1O)CC2` (stereo not drawn) [LB170, 2-((1-methyl-9-(1-methyl-1H-pyrazol-4-yl)-6,7-dihydro-5H-benzo[c][1,2,3]triazolo[1,5-a]azepin-7-yl)amino)phenol] showed a pIC50 ([1]; Homo sapiens, MM1.S, 96 h) of 6.82, a pKi (BRD4 BD2 protein) of 8.32 and a pKi (BRD4 BD1 protein) of 7.13.

Work on `Cc1noc2c1-c1ccc(-c3cnn(C)c3)cc1C(Nc1ccc(Cl)cc1)CC2` (stereo not drawn) [LA55, N-(4-chlorophenyl)-1-methyl-8-(1-methyl-1H-pyrazol-4-yl)-5,6-dihydro-4H-benzo[6,7]cyclohepta[1,2-d]isoxazol-6-amine] yielded a pIC50 ([1]; Homo sapiens, MM1.S, 96 h) of 7.58, a pKi (BRD4 BD2 protein) of 7.59 and a pKi (BRD4 BD1 protein) of 7.27.

Compound `Cc1nnn2c1-c1ccccc1C(Nc1cccc3cnccc13)CC2` (stereo not drawn) [LB103, N-(isoquinolin-5-yl)-1-methyl-6,7-dihydro-5H-benzo[c][1,2,3]triazolo [1,5-a]azepin-7-amine] has a pIC50 ([1]; Homo sapiens, MM1.S, 96 h) of 6.41, a pKi (BRD4 BD2 protein) of 7.02 and a pKi (BRD4 BD1 protein) of 6.22.

With `Cc1nnn2c1-c1ccc(-c3cnn(C)c3)cc1C(Nc1cc(C3CC3)nn1C)CC2` (stereo not drawn) [BE130, N-(3-cyclopropyl-1-methyl-1H-pyrazol-5-yl)-1-methyl-9-(1-methyl-1H-pyrazol-4-yl)-6,7-dihydro-5H-benzo[c][1,2,3]triazolo[1,5-a]azepin-7-amine] the pIC50 ([1]; Homo sapiens, MM1.S, 96 h) was 6.77, the pKi (BRD4 BD2 protein) was 7.52 and the pKi (BRD4 BD1 protein) was 6.86.

`CNC(=O)Cc1ccc(NC2CCn3nnc(C)c3-c3ccc(-c4cnn(C)c4)cc32)cc1` (stereo not drawn) [LB42, N-methyl-2-(4-((1-methyl-9-(1-methyl-1H-pyrazol-4-yl)-6,7-dihydro-5H-benzo[c][1,2,3]triazolo[1,5-a]azepin-7-yl)amino)phenyl)acetamide] gave a pIC50 [1] of 7.80, a pKi (BRD4 BD2 protein) of 8.09 and a pKi (BRD4 BD1 protein) of 7.46.

Compound `Cc1nnn2c1-c1ccc(-c3cnn(C)c3)cc1C(Nc1cccc3ncccc13)CC2` (stereo not drawn) [LB86, 1-methyl-9-(1-methyl-1H-pyrazol-4-yl)-N-(quinolin-5-yl)-6,7-dihydro-5H-benzo[c][1,2,3]triazolo[1,5-a]azepin-7-amine] has a pIC50 ([1]; Homo sapiens, MM1.S, 96 h) of 7.35, a pKi (BRD4 BD2 protein) of 7.85 and a pKi (BRD4 BD1 protein) of 7.25.

With `Cc1nnn2c1-c1ccc(-c3cnn(C)c3)cc1C(Nc1ccccc1CC#N)CC2` (stereo not drawn) [LC09, 2-(2-((1-methyl-9-(1-methyl-1H-pyrazol-4-yl)-6,7-dihydro-5H-benzo[c][1,2,3]triazolo[1,5-a]azepin-7-yl)amino)phenyl)acetonitrile] the pIC50 ([1]; Homo sapiens, MM1.S, 96 h) was 7.41, the “BRD4 BD2 Ki” value (BRD4 BD2 protein) was “<Kd” and the pKi (BRD4 BD1 protein) was 7.81.

`Cc1nnn2c1-c1ccc(-c3cnn(C)c3)cc1C(Nc1ccc(OCCO)cc1)CC2` (stereo not drawn) [LB68, 2-(4-((1-methyl-9-(1-methyl-1H-pyrazol-4-yl)-6,7-dihydro-5H-benzo[c][1,2,3]triazolo[1,5-a]azepin-7-yl)amino)phenoxy)ethanol] was tested, and the pIC50 ([1]; Homo sapiens, MM1.S, 96 h) was 6.95, the pKi (BRD4 BD2 protein) was 7.89 and the pKi (BRD4 BD1 protein) was 7.16.
